# Data taken from PMC9551036, “A selective and orally bioavailable VHL-recruiting PROTAC achieves SMARCA2 degradation in vivo” (Nature Communications, 2022).
# pEC50: −log10 of the molar value. “And” between values parts separate entries of the source, which are not always exact repeats. Equal entries are not always repeated. Where two headings read alike, the source gives them in different places.
# Columns and labels:
# SMARCA4 = SMARCA4 (Homo sapiens, UniProt P51532); assay: Ex vivo human whole blood assay, SMARCA4; assay type: cell-based; set-up: endogenous in cells; details: for HillSlope (best-fit value): four-parameter fit; for Bottom (best-fit value) / Span (best-fit value) / Top (best-fit value): four-parameter fit of % protein remaining
# Method: The assay was performed on human whole blood from three healthy donors, purchased from the Austrian Red Cross who always obtain samples under informed consent. […] Subsequently, peripheral blood mononucleated cells (PBMCs) were isolated from individual aliquots using SepMate Tubes (StemCell) and Lymphoprep (StemCell) medium according to the manufacturer’s instructions and protein lysates were prepared using MSD Lysis buffer (Mesocale Discovery) supplemented with 1:100 Halt Phosphatase-Protease Inhibitor Cocktail (Thermo Fisher), 0.5 µl/ml benzonase (Novagen) and 10 mM DTT. SMARCA2 and SMARCA4 protein levels were determined using capillary electrophoresis (Bio-Techne) according to manufacturer’s instructions. Incubation with primary antibodies for SMARCA2 (Cell Signalling #11966 clone D9E8B RRID:AB_2797783 1:25), SMARCA4 (Abcam #ab110641 clone EPNCIR111A RRID:AB_10861578 1:25) and GAPDH (Abcam, #ab9485 RRID:AB_307275 1:1000) were performed for 30 min.
# KRT80 mRNA = assay: qPCR for KRT80 mRNA levels in A549 and NCI-H1568 cells; assay type: cell-based, human; details: for pEC50 / EC50: Homo sapiens; for pEC50: read-out: EC50 (KRT80 mRNA); for EC50: read-out: LogEC50 (KRT80 mRNA) (converted)
# Method: 350,000–500,000 cells were seeded in 6-well plates and compounds were added the next day at the indicated concentrations after pre-dilution in medium. Cells were incubated for 18 h, harvested, and RNA was extracted using the RNeasy Mini Kit (Qiagen) according to manufacturer’s instructions. A DNAse digestion step was included. 1 µg RNA was used for cDNA synthesis with the SuperScript VILO cDNA synthesis kit (Invitrogen) according to manufacturer’s instructions. TAQMAN qPCR was then performed using the QuantiTect Multiplex PCR kit (Qiagen) with probes for KRT80 (Hs01372365_m1, Applied Biosystems) and human GAPDH as endogenous control (4326317E, VIC/MGB probe, Primer Limited) for normalisation in a duplex assay over 45 cycles with 100 ng cDNA input. […] Curves were fitted using a 4-parametric logistic model.
# SMARCA4, sequence (P51532 whole entry): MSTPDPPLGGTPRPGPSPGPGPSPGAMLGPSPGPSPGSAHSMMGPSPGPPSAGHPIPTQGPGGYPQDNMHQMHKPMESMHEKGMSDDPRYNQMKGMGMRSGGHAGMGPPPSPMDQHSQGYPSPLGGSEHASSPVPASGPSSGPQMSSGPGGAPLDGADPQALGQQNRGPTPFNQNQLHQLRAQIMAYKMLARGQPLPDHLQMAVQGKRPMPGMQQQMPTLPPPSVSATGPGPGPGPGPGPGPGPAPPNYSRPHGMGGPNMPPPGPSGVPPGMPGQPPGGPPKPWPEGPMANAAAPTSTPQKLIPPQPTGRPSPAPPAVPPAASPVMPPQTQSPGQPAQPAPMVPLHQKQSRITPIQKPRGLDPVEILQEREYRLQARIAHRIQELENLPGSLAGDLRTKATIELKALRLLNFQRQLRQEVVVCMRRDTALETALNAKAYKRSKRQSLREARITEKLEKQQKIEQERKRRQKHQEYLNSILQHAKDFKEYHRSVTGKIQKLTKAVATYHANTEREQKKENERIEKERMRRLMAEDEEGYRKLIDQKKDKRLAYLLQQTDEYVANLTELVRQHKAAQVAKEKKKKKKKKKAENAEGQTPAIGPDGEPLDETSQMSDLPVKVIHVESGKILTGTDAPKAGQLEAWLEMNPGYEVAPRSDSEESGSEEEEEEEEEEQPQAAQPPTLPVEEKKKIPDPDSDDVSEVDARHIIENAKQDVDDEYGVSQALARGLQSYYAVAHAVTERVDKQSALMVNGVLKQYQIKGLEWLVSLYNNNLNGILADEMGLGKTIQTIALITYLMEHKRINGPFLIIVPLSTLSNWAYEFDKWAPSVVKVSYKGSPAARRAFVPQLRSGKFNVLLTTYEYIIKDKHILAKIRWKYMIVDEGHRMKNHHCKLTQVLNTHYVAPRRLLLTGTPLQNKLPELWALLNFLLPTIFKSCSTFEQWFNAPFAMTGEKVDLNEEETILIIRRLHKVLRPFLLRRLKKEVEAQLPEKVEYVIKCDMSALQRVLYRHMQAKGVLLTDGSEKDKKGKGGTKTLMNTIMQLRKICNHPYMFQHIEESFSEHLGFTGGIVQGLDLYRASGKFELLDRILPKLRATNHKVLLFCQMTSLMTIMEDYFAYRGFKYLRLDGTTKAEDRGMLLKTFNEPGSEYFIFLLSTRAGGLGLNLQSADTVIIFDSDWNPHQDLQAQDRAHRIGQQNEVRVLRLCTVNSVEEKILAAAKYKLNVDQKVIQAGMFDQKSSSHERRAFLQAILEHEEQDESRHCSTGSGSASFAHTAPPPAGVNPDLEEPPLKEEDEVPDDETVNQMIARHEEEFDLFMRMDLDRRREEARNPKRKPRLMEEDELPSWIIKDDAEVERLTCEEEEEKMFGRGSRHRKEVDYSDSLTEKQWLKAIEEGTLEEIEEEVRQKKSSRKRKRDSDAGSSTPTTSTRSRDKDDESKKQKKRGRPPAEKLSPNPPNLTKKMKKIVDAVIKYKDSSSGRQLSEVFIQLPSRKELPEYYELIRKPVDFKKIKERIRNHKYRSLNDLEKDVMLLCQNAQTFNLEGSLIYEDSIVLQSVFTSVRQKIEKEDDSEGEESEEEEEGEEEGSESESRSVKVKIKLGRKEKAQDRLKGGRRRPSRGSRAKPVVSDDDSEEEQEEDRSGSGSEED
structure (smiles),measurement,setting,value
Cc1ncsc1-c1ccc(C(CCC(C)CCN2CCC(c3ccc4c(c3)n(C3CCCC3)c3nc(=O)c5c(Br)cccc5n43)CC2)NC(=O)C2CC(O)CN2C(=O)C(NC(=O)C2(F)CC2)C(C)(C)C)cc1 (centres unmarked) [ACBI2],"% protein remaining, SMARCA4","SMARCA4; Donor 2, log10[concentration (mol/l)] -6",50.102% and 76.224% and 84.3004%
same,"% protein remaining, SMARCA4","SMARCA4; Donor 2, log10[concentration (mol/l)] -6.47712",93.5183% and 92.0167% and 75.7642%
same,"% protein remaining, SMARCA4","SMARCA4; Donor 2, log10[concentration (mol/l)] -6.95424",80.3377% and 113.951% and 102.967%
same,"% protein remaining, SMARCA4","SMARCA4; Donor 2, log10[concentration (mol/l)] -7.43136",130.957% and 130.042% and 111.295%
same,"% protein remaining, SMARCA4","SMARCA4; Donor 2, log10[concentration (mol/l)] -7.90848",121.533% and 102.344% and 98.5667%
same,"% protein remaining, SMARCA4","SMARCA4; Donor 2, log10[concentration (mol/l)] -8.38561",105.689% and 139.901% and 105.419%
same,"% protein remaining, SMARCA4","SMARCA4; Donor 2, log10[concentration (mol/l)] -8.86273",54.3169% and 99.7184% and 98.048%
same,HillSlope (best-fit value),SMARCA4; Donor 2 SMARCA4,-2.11
same,Bottom (best-fit value),SMARCA4; Donor 2 SMARCA4,67.18%
same,Span (best-fit value),SMARCA4; Donor 2 SMARCA4,40.18%
same,Top (best-fit value),SMARCA4; Donor 2 SMARCA4,107.4%
same,"% protein remaining, SMARCA4","SMARCA4; Donor 3, log10[concentration (mol/l)] -6.47712",88.0329% and 79.2762% and 67.3837%
same,"% protein remaining, SMARCA4","SMARCA4; Donor 3, log10[concentration (mol/l)] -6.95424",92.9994% and 98.4764% and 74.8427%
same,"% protein remaining, SMARCA4","SMARCA4; Donor 3, log10[concentration (mol/l)] -7.43136",95.6107% and 82.1879% and 123.028%
same,"% protein remaining, SMARCA4","SMARCA4; Donor 3, log10[concentration (mol/l)] -7.90848",125.23% and 122.739% and 76.3116%
same,"% protein remaining, SMARCA4","SMARCA4; Donor 3, log10[concentration (mol/l)] -8.38561",96.5427% and 109.291% and 74.8647%
same,"% protein remaining, SMARCA4","SMARCA4; Donor 3, log10[concentration (mol/l)] -8.86273",92.1949% and 111.194% and 102.774%
same,HillSlope (best-fit value),SMARCA4; Donor 3 SMARCA4,-1.413
same,Bottom (best-fit value),SMARCA4; Donor 3 SMARCA4,61.66%
same,Span (best-fit value),SMARCA4; Donor 3 SMARCA4,39.83%
same,Top (best-fit value),SMARCA4; Donor 3 SMARCA4,101.5%
same,SMARCA4 degradation in human whole blood,SMARCA4; up to a top concentration of 1 µM,≤ 50%
same,KRT80 mRNA levels,KRT80 mRNA; 18 h treatment,decreased mRNA levels of KRT80
same,"Bottom (% KRT80 mRNA, four-parameter fit)",KRT80 mRNA; A549,1.487%
same,HillSlope (KRT80 mRNA),KRT80 mRNA; A549,-1.195
same,"Top (% KRT80 mRNA, four-parameter fit)",KRT80 mRNA; A549,88.72%
same,% KRT80 mRNA,"KRT80 mRNA; A549, conc 1e-10 mol/l",68.3704%
same,% KRT80 mRNA,"KRT80 mRNA; A549, conc 3.2e-10 mol/l",113.907%
same,% KRT80 mRNA,"KRT80 mRNA; A549, conc 1e-9 mol/l",83.7736%
same,% KRT80 mRNA,"KRT80 mRNA; A549, conc 1.6e-9 mol/l",68.0813%
same,% KRT80 mRNA,"KRT80 mRNA; A549, conc 8e-9 mol/l",32.1733%
same,% KRT80 mRNA,"KRT80 mRNA; A549, conc 1e-8 mol/l",59.5378%
same,% KRT80 mRNA,"KRT80 mRNA; A549, conc 4e-8 mol/l",6.155%
same,% KRT80 mRNA,"KRT80 mRNA; A549, conc 1e-7 mol/l",5.176%
same,% KRT80 mRNA,"KRT80 mRNA; A549, conc 2e-7 mol/l",3.074%
same,% KRT80 mRNA,"KRT80 mRNA; A549, conc 1e-6 mol/l",3.879% and 3.0631%
same,pEC50,KRT80 mRNA; A549,8.08
same,EC50,KRT80 mRNA; A549,8.26 nM
same,pEC50,KRT80 mRNA; NCI-H1568,8.01
same,EC50,KRT80 mRNA; NCI-H1568,9.77 nM
same,"Bottom (% KRT80 mRNA, four-parameter fit)",KRT80 mRNA; NCI-H1568,16.16%
same,"Top (% KRT80 mRNA, four-parameter fit)",KRT80 mRNA; NCI-H1568,89.57%
same,% KRT80 mRNA,"KRT80 mRNA; NCI-H1568, conc 1e-10 mol/l",84.6925%
same,% KRT80 mRNA,"KRT80 mRNA; NCI-H1568, conc 1.6e-9 mol/l",88.1629%
same,% KRT80 mRNA,"KRT80 mRNA; NCI-H1568, conc 8e-9 mol/l",95.8588%
same,% KRT80 mRNA,"KRT80 mRNA; NCI-H1568, conc 1e-8 mol/l",27.1635%
same,% KRT80 mRNA,"KRT80 mRNA; NCI-H1568, conc 4e-8 mol/l",13.5152%
same,% KRT80 mRNA,"KRT80 mRNA; NCI-H1568, conc 1e-7 mol/l",10.7775%
same,% KRT80 mRNA,"KRT80 mRNA; NCI-H1568, conc 2e-7 mol/l",11.1934%
same,% KRT80 mRNA,"KRT80 mRNA; NCI-H1568, conc 1e-6 mol/l",17.4529% and 27.8788%
